Measurements published in patent publication US5225607A, “Insecticidal ethers” (Imperial Chemical Industries PLC, priority 1985, dated 1993).

Columns and labels:
Assay type in all cases: in vivo
Nilaparvata lugens = assay: Insecticidal test, Nilaparvata lugens (brown planthopper), contact; conditions: 72 h, Cabbage leaf, 3 days, read-out: grading of mortality, NL
Protocol: (§1) The activity of the Product was determined using a variety of insect and acarine pests. The Product was used in the form of liquid preparations containing 500, 250 or 100 parts per million (ppm) by weight of the Product. The preparations were made by dissolving the Product in acetone and diluting the solutions with water containing 0.01% by weight of a wetting agent sold under the trade name "LISSAPOL" NX until the liquid preparations contained the required concentratio of the Product. "Lissapol" is a Registered Trade Mark.
(§2) The test procedure adopted with regard to each pest was basically the same and comprised supporting a number of the pests on a medium which was usually a host plant or a foodstuff on which the pests feed, and treating either or both the pests and the medium with the preparations. The mortality of the pests was then assessed at periods usually varying from one to three days after the treatment.
(§3) The results of the tests are given in Table IV for each of the Products, at the rate in parts per million given in the second column as a grading of mortality designated as A, B or C wherein A indicates 80-100% mortality or knockdown (70-100% in the case of Spodoptera exigua), B indicates 50-79% mortality or knockdown (50-69% in the case of Spodoptera exigua) and C indicates less than 50% mortality or knockdown.
(§4) In Table IV the pest organism used is designated by a letter code and the pest species, the support medium or food, and the type and duration of test is given in Table III.

Myzus persicae = assay: Insecticidal test, Myzus persicae (aphids), contact; conditions: 72 h, Chinese Cabbage leaf, 3 days, read-out: grading of mortality, MP
Protocol: as §1, §2, §3, §4

Diabrotica balteata = assay: Insecticidal test, Diabrotica balteata (rootworm larvae), residual; conditions: 72 h, filter paper/maize seed, 3 days, read-out: grading of mortality, DB
Protocol: as §1, §2, §3, §4

Heliothis virescens = assay: whole plant or invertebrate; conditions: in Gossypium hirsutum, 72 h, read-out: grading of mortality, HV
Protocol: as §1, §2, §3, §4

Blattella germanica = assay: Insecticidal test, Blattella germanica (cockroach nymphs), residual; conditions: 72 h, plastic pot, 3 days, read-out: grading of mortality, BG
Protocol: as §1, §2, §3, §4

Musca domestica [1] = assay: Insecticidal test, Musca domestica (houseflies - adults), contact; conditions: 24 h, cotton wool/sugar, 1 day, read-out: grading of mortality, MD
Protocol: as §1, §2, §3, §4

Musca domestica [2] = assay: Knockdown test, Musca domestica (houseflies - adults); conditions: cotton wool/sugar, 4 hours, read-out: grading of knockdown, MD/KD
Protocol: as §1, §2
In the case of the species Musca domestica (housefly), additional tests to determine the knockdown effect of the compounds were performed.
as §3, §4

Tetranychus urticae = assay: Insecticidal/acaricidal test, Tetranychus urticae (spider mites - adult), contact; conditions: 72 h, 500 ppm, French bean leaf, 3 days, read-out: grading of mortality, TU
Protocol: as §1, §2, §3, §4

SMILES	mortality at 500 ppm (Nilaparvata lugens) [%]	mortality at 500 ppm (Myzus persicae) [%]	mortality at 500 ppm (Diabrotica balteata) [%]	mortality at 500 ppm (Blattella germanica) [%]	mortality at 500 ppm (Musca domestica [1]) [%]	pest or weed control at 500 ppm (Musca domestica [2]) [%]	mortality at 250 ppm (Nilaparvata lugens) [%]	mortality at 250 ppm (Myzus persicae) [%]	mortality at 250 ppm (Diabrotica balteata) [%]	mortality at 250 ppm (Heliothis virescens) [%]	mortality at 250 ppm (Blattella germanica) [%]	mortality at 250 ppm (Musca domestica [1]) [%]	pest or weed control at 250 ppm (Musca domestica [2]) [%]	also measured
CCOc1ccc(C(COCc2cccc(Oc3ccccc3)n2)C(F)(F)F)cc1 (centres unmarked) [Compound 4, 1,1,1-Trifluoro-2-(4-ethoxyphenyl)-3-(6-phenoxy-2-pyridylmethyloxy)propane]														mortality at 100 ppm (Nilaparvata lugens): 80 to 100%; mortality at 100 ppm (Myzus persicae): 80 to 100%; mortality at 100 ppm (Diabrotica balteata): 80 to 100%; mortality at 100 ppm (Heliothis virescens): 80 to 100%; mortality at 100 ppm (Blattella germanica): 80 to 100%; mortality at 100 ppm (Musca domestica [1]): 80 to 100%; pest or weed control at 100 ppm (Musca domestica [2]): 80 to 100%
Fc1ccc(COCC(c2ccc(Cl)cc2)C(F)(F)F)cc1Oc1ccccc1 (centres unmarked) [Compound 15]	80 to 100	80 to 100	80 to 100	80 to 100	80 to 100	80 to 100								mortality at 500 ppm (Tetranychus urticae): 80 to 100%
CCOc1ccc(C(Cl)(COCc2c(F)c(F)c(C)c(F)c2F)C(F)(F)F)cc1 (centres unmarked) [Compound 39, 1,1,1-Trifluoro-2-chloro-2-(4-ethoxyphenyl)-3-(4-methyl-2,3,5,6-tetrafluorobenzyloxy)propane]							80 to 100	< 50	< 50	< 50	< 50	< 50	< 50	
CCOc1ccc(C(Cl)(COCc2ccc(F)c(Oc3ccccc3)c2)C(F)(F)F)cc1 (centres unmarked) [Compound 40, 1,1,1-Trifluoro-2-chloro-2-(4-ethoxyphenyl)-3-(3-phenoxy-4-fluorobenzyloxy)propane]							80 to 100	80 to 100	80 to 100	80 to 100	80 to 100	80 to 100	80 to 100	
CCOc1ccc(C(Cl)(COCc2cccc(Oc3ccccc3)n2)C(F)(F)F)cc1 (centres unmarked) [Compound 41, 1,1,1-Trifluoro-2-chloro-2-(4-ethoxyphenyl)-3-(6-phenoxy-2-pyridylmethyloxy)propane]	80 to 100	80 to 100	80 to 100	< 50	80 to 100	80 to 100								mortality at 500 ppm (Heliothis virescens): 80 to 100%
CCOc1ccc(C(Cl)(COCc2ccc(F)c(Oc3ccc(Br)cc3)c2)C(F)(F)F)cc1 (centres unmarked) [Compound 43, 1,1,1-Trifluoro-2-chloro-2-(4-ethoxyphenyl)-3-(3-(4-bromophenoxy)-4-fluorobenzyloxy)propane]	80 to 100	80 to 100	< 50	50 to 79	80 to 100	80 to 100								mortality at 500 ppm (Tetranychus urticae): 50 to 79%
CCOc1ccc(C(F)(COCc2cccc(Oc3ccccc3)c2)C(F)(F)F)cc1 (centres unmarked) [Compound 75, 1,1,1,2-tetrafluoro-2-(4-ethoxyphenyl)-3-(3-phenoxybenzyloxy)propane]														mortality at 100 ppm (Nilaparvata lugens): 80 to 100%; mortality at 100 ppm (Myzus persicae): 50 to 79%; mortality at 100 ppm (Diabrotica balteata): 80 to 100%; mortality at 100 ppm (Heliothis virescens): < 50%; mortality at 100 ppm (Blattella germanica): < 50%; mortality at 100 ppm (Musca domestica [1]): 50 to 79%; pest or weed control at 100 ppm (Musca domestica [2]): 80 to 100%
CCOc1ccc(C(F)(COCc2cccc(Oc3ccccc3)n2)C(F)(F)F)cc1 (centres unmarked) [Compound 76, 1,1,1,2-Tetrafluoro-2-(4-ethoxyphenyl)-3-(6-phenoxy-2-pyridylmethyloxy)propane]	80 to 100	80 to 100	80 to 100	80 to 100	80 to 100	80 to 100								mortality at 500 ppm (Heliothis virescens): 80 to 100%
CCOc1ccc(C(F)(COCc2ccc(F)c(Oc3ccccc3)c2)C(F)(F)F)cc1 (centres unmarked) [Compound 77, 1,1,1,2-Tetrafluoro-2-(4-ethoxyphenyl)-3-(3-phenoxy-4-fluorobenzyloxy)propane]							80 to 100	80 to 100	80 to 100	80 to 100	80 to 100	80 to 100	80 to 100	
CCOc1ccc(C(F)(COCc2c(F)c(F)c(C)c(F)c2F)C(F)(F)F)cc1 (centres unmarked) [Compound 78, 1,1,1,2-Tetrafluoro-2-(4-ethoxyphenyl)-3-(4-methyl-2,3,5,6-tetrafluorobenzyloxy)propane]							80 to 100	< 50	80 to 100	80 to 100	80 to 100	< 50	< 50	
Fc1ccc(COCC(F)(c2ccc(Cl)cc2)C(F)(F)F)cc1Oc1ccccc1 (centres unmarked) [Compound 81, 1,1,1,2-tetrafluoro-2-(4-chlorophenyl)-3-(3-phenoxy-4-fluorobenzyloxy)propane]	80 to 100	80 to 100	80 to 100	80 to 100	80 to 100	80 to 100								mortality at 500 ppm (Tetranychus urticae): < 50%
CCOc1ccc(C(O)(COCc2ccc(F)c(Oc3ccccc3)c2)C(F)(F)F)cc1 (centres unmarked) [Compound 113, 1,1,1-Trifluoro-2-(4-ethoxyphenyl)-3-(4-fluoro-3-phenoxybenzyloxy)propan-2-ol]							50 to 79	< 50	80 to 100	< 50	< 50	50 to 79	80 to 100	
CCOc1ccc(C(O)(COCc2c(F)c(F)c(C)c(F)c2F)C(F)(F)F)cc1 (centres unmarked) [Compound 114, 1,1,1-Trifluoro-2-(4-ethoxyphenyl)-3-(4-methyl-2,3,5,6-tetrafluorobenzyloxy)propan-2-ol]														mortality at 100 ppm (Nilaparvata lugens): 50 to 79%; mortality at 100 ppm (Myzus persicae): < 50%; mortality at 100 ppm (Diabrotica balteata): < 50%; mortality at 100 ppm (Heliothis virescens): < 50%; mortality at 100 ppm (Blattella germanica): < 50%; mortality at 100 ppm (Musca domestica [1]): < 50%; pest or weed control at 100 ppm (Musca domestica [2]): < 50%
OC(COCc1cccc(Oc2ccccc2)c1)(c1ccc(OC(F)(F)F)cc1)C(F)(F)F (centres unmarked) [Compound 139, 1,1,1-trifluoro-2-(4-trifluoromethoxyphenyl)-3-(3-phenoxybenzyloxy)-propan-2-ol]	< 50	< 50	80 to 100	< 50	80 to 100	80 to 100								mortality at 500 ppm (Heliothis virescens): 80 to 100%
CCOc1ccc(C(O)(COCc2cccc(Oc3ccccc3)n2)C(F)(F)F)cc1 (centres unmarked) [Compound 141, 1,1,1-trifluoro-2-(4-ethoxyphenyl)-3-(6-phenoxy-2-pyridylmethyloxy)propan-2-ol]	50 to 79	< 50	50 to 79	< 50	80 to 100	80 to 100								mortality at 500 ppm (Heliothis virescens): 80 to 100%
CCOc1ccc(C(COCc2ccc(F)c(Oc3ccccc3)c2)(OC(C)=O)C(F)(F)F)cc1 (centres unmarked) [Compound 149, 1,1,1-trifluoro-2-acetoxy-2-(4-ethoxyphenyl)-3-(3-phenoxy-4-fluorobenzyloxy)propane]							50 to 79	< 50	< 50	50 to 79	< 50	< 50	< 50	
CCOc1ccc(C(COCc2ccc(F)c(Oc3ccccc3)c2)(OC)C(F)(F)F)cc1 (centres unmarked) [Compound 150, 1,1,1-trifluoro-2-methoxy-2-(4-ethoxyphenyl)-3-(3-phenoxy-4-fluorobenzyloxy)propane]							< 50	50 to 79	80 to 100	80 to 100	< 50	< 50	< 50	
